From patent US20030224522A1, “Methods for delivering nucleic acid molecules into cells and assessment thereof” (priority 2002, published 2003)

Key:
LM(tk−) cells [1] = assay: Nocodazole cell synchronization, cell cycle kinetics by propidium iodide flow cytometry; assay type: cell-based, murine
Description: To determine the optimum blocking concentration of nocodazole, nocodazole concentrations were titrated against LM(tk−) cells to generate a dose response. Timing of the optimal blocking concentration (100 ng/ml) was then assessed over 0-1 6 hours using flow cytometry. To determine the cell cycle kinetics of LM(tk−) cell populations at different time points, cells were stained with propidium iodide (PI) at a concentration of […] for 1×10^6 cells and analyzed with a FACS Vantage SE (Becton Dickinson Immunocytometry Systems, San Jose, Calif.) equiped with an argon laser tuned to 488 nm at 200 mW. Whole intact cells were gated on forward scatter (FSC, representing cell size) versus side scatter (SSC, representing internal granularity) and PI emission was detected with a 630/22 filter. A list mode file was generated with a minimum of 20,000 whole intact cells analyzed. The proportion of cells in G0-G1, S and G2-M were documented for each time point. Optimum cell-cycle arrest at the G2/M boundary was achieved by incubating cells with 100 ng/ml nocodazole in serum containing DMEM medium for 6 hours. After 6 hours of nocodazole exposure at 100 ng/ml, approximately 20% of cells were in S phase and 50% of cells were at G2/M. Cell cycle kinetics were again monitored by flow cytometry upon release of the nocodazole block and at frequent intervals over a 16 hour period.

LM(tk−) cells [2] = assay: ACes transfection at time points after release of nocodazole block, hygromycin selection and FISH; assay type: cell-based, murine; details: nocodazole synchronized colonies (20/47), LipofectAMINE PLUS or Superfect; asynchronous control colonies 4% (2/49)
Description: Cells were plated at 7.5×10^5 cells per well of a 6-well plate 24 hours prior to nocodazole treatment. The cells were incubated with nocodazole for 6 hours. After the 6 hour incubation, wells were hosed with medium to dislodge the suspension fraction of cells. Nocodazole containing medium was removed and the wells were washed with fresh medium. The wash medium was aspirated and fresh medium was replaced in the wells. To determine the optimum time point for transfection, different cell samples were transfected at different time points after release of the nocodazole block. The time points were 0, 2, 4, 6, 8, 12, and 16 hours after release of the nocodazole block. Following transfer, the cells were plated and transfectants identified using hygromycin selection. Highest colony formations were achieved when transfection occurred 2-4 hours post nocodazole block. At these time points, cell population distribution included approximately 10% of cells in G0/G1, 20% in S, and 70% in G2/M. Transfectants were analyzed using FISH to determine the quality of the transferred material. […]
Cells were synchronized by nocodazole treatment (100 ng/ml final concentration) for 6 hours prior to transfection. […] Twenty-four hours post-transfection the cells are counted (Coulter counter) and a small fraction are plated for a modified toxicity assay. […]

CHO-KI cells = assay: Ultrasound mediated transfection of GFP chromosomes with Saint-2; assay type: cell-based
Description: CHO-KI cells were grown at 37°, 5% CO2, in CHO-S-SFM 2 Medium, (Gibco BRL, Paisley, UK). Between 2×10^5 and 5×10^5 cells were plated onto sterile glass slides in a 12 well plate 24 h before usage.
Transfection of the cells was performed as follows. The medium was removed from the cells, and the cells were washed twice with HBSS (Hanks balanced salt solution without Phenol Red (Gibco BRL, UK)) at 37° C. Then 500 μl HBSS at 37° C. was added per well, followed by 10 μl of the freshly prepared vesicle solution (prepared in Example 2) to yield a final concentration of 23.3 nmol/ml.
Alternatively, the medium was removed from the cells, and the cells were washed twice with HBSS. 500 μl HBSS/lipid solution at 37° C. was added to each well. The HBSS/lipid solution was prepared by adding 1 μl ethanolic lipid solution (prepared as described above) to 500 μHBSS under vigorous vortexing. The plates were then sealed with parafilm tape and shaken gently at room temperature for 30 min. After incubation, ultrasound was applied at an output energy of 0.5 Watt/cm^2 for 60 sec through the bottom of the plate to the cells. The ultrasound was mediated by an ultrasound gel (Aquasonic 100, Parker, N.J.) between transducer and plate. The ultrasound was applied with an ImaRx Sonoporator 100. Immediately after applying ultrasound one GFP chromosome per seeded cell (2×10^5-5×10^5) (prepared in Example 1) was added. The plate was then sealed again and shaken gently for 1 h at room temperature. After the incubation 1 ml medium (CHO—S—SFM 2 with 10% Fetal Calf Serum, 10000 μg/ml Penicillin and 10000 μg/ml Streptomycin Gibco BRL, Paisley, UK) was added to each well and the cells were incubated for 24 h at 37° C. The cells were then washed with medium and 1 ml medium was added and the cells were incubated at 37° for another 24 h. Detection of expressed genes was then assayed by microscopy or detection of the transferred chromosome by FISH analysis.
The negative control was performed in the same way, but with no chromosomes added to the cells.

A9 cells = assay: as above; assay type: cell-based, murine; details: of the cells remaining on the glass
Description: A9 cells were grown at 37° C., 5% CO2, in DMEM with 4500 mg/l Glucose, with Pyridoxine/HCL, 10% Fetal Calf Serum, 10000 μg/ml Streptomycin and 10000 μg/ml Penicillin (GIBCO BRL, Paisley, UK). Between 2×10^5 and 5×10^5 cells were plated onto sterile glass slides in a 12 well plate 24 h before usage.
Cells were transfected with GFP chromosomes using the procedure of Example 6A except that CHO-KI medium was replaced with A9 medium.

Hep-G2 cells = assay: as above; assay type: cell-based, human; details: of the cells remaining on the slide
Description: Hep-G2 cells were grown at 37° C., 5% CO2, in DMEM with 4500 mg/l Glucose, with Pyridoxine/HCL, 10% Fetal Calf Serum, 10000 μg/ml Streptomycin and 1000 μg/ml Penicillin. Between 2×10^5 and 5×10^5 cells were plated onto sterile glass slides in a 12 wells plate 24 hours before usage.
Cells were transfected with GFP chromosomes using the procedure of Example 6A except that the CHO—KI medium was replaced with Hep-G2 medium.

LM(tk−) cells [3] = assay: Thymidine cell synchronization, cell cycle kinetics by flow cytometry; assay type: cell-based, murine; details: 16 hours incubation, dose range 1-20 mM tested
Description: To determine the optimum parameters for cell cycle synchronization, thymidine was administered to cell samples in a dose range of 1-20 mM. Samples were analyzed by flow cytometry to determine the cell cycle kinetics of LM(tk−) cell populations at frequent intervals over a 16 hour time period. Optimum synchronization of cells in G0/G1 was achieved by incubating LM(tk−) cells with 10 mM thymidine in serum containing DMEM medium for 16 hours. The thymidine block was released by washing the cells twice in serum-free medium and replacing the medium with complete medium containing 24 μM 2′-deoxycytidine 5′ mono-phosophate (dCMP; Sigma D-7750, St. Louis, Mo.). Cell cycle kinetics were again monitored by flow cytometry upon release of the thymidine block and at frequent intervals over a 16 hour period.

[4] = 2-4 hours post nocodazole block
[5] = after 6 hours of nocodazole exposure at 100 ng/ml

COC(=O)Nc1nc2ccc(C(=O)c3cccs3)cc2[nH]1 [nocodazole]
cells in G0/G1 (LM(tk−) cells [1]; [4]): approximately 10% | cells in G2/M (LM(tk−) cells [1]; [4]): ~70% | cells in S (LM(tk−) cells [1]; [4]): ~20% | optimal blocking concentration for cell-cycle arrest at the G2/M boundary (LM(tk−) cells [1]; 6 hours incubation, serum containing DMEM): 100 ng/mL | cells at G2/M (LM(tk−) cells [1]; [5]): ~50% | cells in S phase (LM(tk−) cells [1]; [5]): approximately 20% | percentage of colonies where at least 50% of the cells had an intact ACes (FISH) (LM(tk−) cells [2]): 43%

CCCCCCCCC=CCCCCCCCCC(CCCCCCCCC=CCCCCCCCC)c1cc[n+](C)cc1.[Cl-] (stereo not shown) [Saint-2, 1-methyl-4-(1-octadec-9-enyl-nonadec-10-enylenyl) pyridinium chloride]
GFP positive cells, of original population (CHO-KI cells; after 48 hours): 3% | remaining cells positive for green fluorescent protein expression (CHO-KI cells; after 48 hours, of the cells remaining on the slide): 10% | cells containing an intact artificial chromosome (FISH) (CHO-KI cells; after culturing for two weeks): 1.4% | remaining cells positive for green fluorescent protein expression (A9 cells): 50% | remaining cells positive for green fluorescent protein expression (Hep-G2 cells): 80%

Cc1cn([C@H]2C[C@H](O)[C@@H](CO)O2)c(=O)[nH]c1=O [thymidine]
concentration for optimum synchronization of cells in G0/G1 (LM(tk−) cells [3]): 10 mM
